The record followed here is patent US20200368205A1, “METHODS AND COMBINATION THERAPY TO TREAT CANCER” (ARRAY BIOPHARMA INC., priority 2018, published 2020).

For one data set, the system named is melanoma cell lines. The experiment in a line: MHC class I expression across the panel of eight melanoma cell lines. Format: cell-based, human. As for the experimental part:
The goal of this study was to measure the effects of binimetinib on cell surface MHC class I expression in various melanoma cell lines. In this study, eight melanoma cell lines were evaluated: MEL-JUSO (NRAS Q61L mutation), IPC-298 (NRAS Q61L mutation), A375 (BRAF V600E, homozygous mutation), HS936.T (NRAS Q61K mutation and BRAF N581K mutation), MM485 (NRAS Q61R mutation), SK-MEL-2 (NRAS Q61R mutation), MM415 (NRAS Q61L mutation), Malme-3M (BRAF V600E, heterozygous mutation). The cells lines were seeded into flat bottom 96-well tissue culture plates at a density of 5000 cells per well and allowed to adhere overnight. The following day cells were treated with vehicle control (0.25% DMSO) or varying dilutions of Binimetinib (0.7 nM-25000 nM) for 1 hour. Cells were then treated with vehicle control or 100 ng/ml IFNgamma (R&D systems) for 72 hours. Cells were washed, trypsinized, and stained with Alexa Fluor® 647 anti-human HLA-A,B,C antibody (W6/32, eBioscience) and analyzed on a BD FACSCanto II flow cytometer. An IFNg titration and time course were performed for assay optimization. Maximal induction of MHC class I expression was seen ˜100 ng/mL of IFNγ (see, e.g., FIGS. 1 and 2).

Another data set deals with RENCA tumors. The experiment in a line: Growth of RENCA renal carcinoma tumors in retired mice. Format: in vivo. As for the experimental part: 1% CMC/0.5% Tween-80 (CMCT) was prepared by adding 960 mL of distilled water to a 1000 mL Pyrex® glass bottle with a stir bar in the bottom, and was used as the oral vehicle. […] Carboxymethylcellulose (5 g, CMC, low viscosity, Sigma C5678, Batch #033K0008) was added slowly, over one hour. The solution was stirred until the CMC dissolved and the solution was clear. 30 mg/kg MEK162 (Binimetinib, 100% active) was prepared as a white, homogeneous suspension in CMCT. MEK162 was administered in 10 mL/kg and dosed at 30 mg/kg (3.0 mg/mL) by oral gavage. To prepare, dry test compound (90 mg) was weighed and 30 mL CMCT added. Dose suspension was sonicated until a fine suspension was achieved (˜15 min). Final dose suspension was stored at 4° C. during live phase and sonicated to resuspend prior to dose administration. Dose suspension was prepared every 4-5 days or as needed. […] The antibody was administered at 100 μg/animal (100 μL of a 1 mg/mL dose solution) by intraperitoneal injection.
Male BALB/c mice from Charles River (Wilmington, Mass.) were obtained at 6-8 weeks of age and housed in groups of 5. Following a two week acclimation period, a suspension of 1×10^5 cells in a volume of 100 μL saline was implanted subcutaneously on the right flank of the animal near the axillary region. Animals were then randomly assigned to treatment groups. Treatment was initiated on day 4 after CT26 tumor cell inoculation to allow for a sufficient treatment window. MEK162 was administered once daily (QD) for 14 consecutive days by oral gavage (PO) at 30 mg/kg and anti-PD1 antibody was administered twice weekly by intraperitoneal injection (IP) (Table 4).
The combination was evaluated as concomitant administration or sequential where MEK162 treatment was initiated at the time that tumor resistance from anti-PD1 treatment emerged. For the sequential treatment group, animals were enrolled in MEK162 treatment when tumors reached 350-400 mm^3 after anti-PD1 antibody therapy was initiated.
Animals were monitored for tumor growth and body weight 2-3 times per week based on outgrowth kinetics. Tumor diameter was measured with digital calipers, and the tumor volume in mm^3 was calculated by the formula: Volume=((width)^2×length)/2. TGI was calculated on day 15. Animals were removed from study if found moribund or if tumor volume exceeded 1400 mm^3. At that time, tumor tissue was harvested and frozen for later analysis of T-cell clonality by immune sequencing (Adaptive Biotech, San Diego, Calif.).
Survival defined as morbidity, mortality or tumor size exceeding 1400 mm3. […] Cures: Animals with no palpable tumor at the end of the study were scored as cures. Maximum % Body Weight Loss (% BWL): % BWL=100(1−BWt/BW0); BW0 is group mean body weight at study start and BWt is group mean or median body weight on day where maximal body weight loss is observed. Tx-Related Deaths: Death occurring during live phase specifically due to drug administration and not attributable to other causes (e.g. gavage trauma, tumor-related morbidity, etc.)
For mice that were injected subcutaneously with RENCA cells, retired female breeders were used (23 weeks old). 200 μg of αPD-1 was administered on days 1, 4, 8 and 11.

`Cn1cnc2c(F)c(Nc3ccc(Br)cc3F)c(C(=O)NOCCO)cc21` [Binimetinib, 6-(4-bromo-2-fluorophenylamino)-7-fluoro-3-methyl-3H-benzoimidazole-5-carboxylic acid (2-hydroxyethoxy)-amide]: the “melanoma cell lines with increased MHC class I cell surface expression” value with melanoma cell lines (binimetinib alone, eight melanoma cell lines) is 6 of 8. Moreover, the “fold increase in MHC class I cell surface expression” value with melanoma cell lines (binimetinib alone, in 6 of 8 melanoma cell lines) is reported as 1.5-3 fold. Moreover, the “fold increase of IFNg-induced MHC class I” value with melanoma cell lines (with IFNg, all tested cell lines) is listed as 1.5-4 fold. Further, the “Cures (day 43)” value in the data set with RENCA tumors (retired mice) was 0/12. Also, the “% TGI (day 18)” value in the data set on RENCA tumors (retired mice (23 weeks of age), binimetinib 30 mg/kg, αPD-1 200 μg days 1, 4, 8 and 11) is given as 25%. The Deaths in the data set with RENCA tumors (retired mice, vehicle 9/12) is given as 10/12. For the same compound, the “Maximum % BWL” value in the data set with RENCA tumors (retired mice, vehicle 15.1) was determined as 23.3%. Also, the “Median Survival” value in the data set with RENCA tumors (retired mice, vehicle 21) was 24.
